This passage reports TGI and GI50 results from PubChem BioAssay (NCI).

Where “and” joins values, the source holds several entries; their conditions need not be identical. Identical values can stand only once.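 96-well plates; 48 h exposure; 5 concentrations. Endpoints by linear interpolation between flanking doses. Not reached: highest tested concentration assigned. GI50 marks 50% less growth. At the TGI there is no net growth.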 Some results are limits rather than exact numbers.

Holding throughout (assay): growth of human tumour cells (NCI), 48 h
Assay [1] has as its system ACHN renal.
Assay [2] concerns HCT-116 colon.
Assay [3] relates to HOP-62 NSCLC.
Assay [4] relates to IGROV1 ovarian.
Assay [5] has as its system K-562 leukemia.
For assay [6], the system named is KM12 colon.
Assay [7] relates to LOX IMVI melanoma.
Assay [8] relates to SF-295 CNS.
Assay [9] concerns SR leukemia.
The subject of assay [10] is UACC-62 melanoma.

In the case of `COC(=O)c1cc(Br)c(Br)n1C`, the TGI in assay [1], in assay [2], in [3], in [4], in [5] and in assay [6] was greater than 100 µM throughout. Besides, the TGI in assay [7], in assay [8], in [9] and in assay [10] was greater than 100 µM in each case.
For the compound `CCC1(O)C(=O)OCc2c1cc1n(c2=O)Cc2cc3ccc(C=O)cc3nc2-1` (centres undefined), the GI50 was 1.73 µM in assay [1]; 0.519 µM in assay [2]; 0.476 µM in assay [3]; 5.11 µM in assay [4]; 1.39 µM in assay [5]; 4.83 µM in [6]. The GI50 in assay [7] is 0.403 µM; in assay [8] it was 2.07 µM; in assay [9] it was 0.0647 µM; in [10], 0.77 µM. The TGI in assay [1] is 38.9 µM and 5.51 µM; in assay [2], 7.29 µM and 16.4 µM; in assay [3] it was 14.9 µM and 1.56 µM; in assay [4] it was 20 µM and 50.7 µM; in assay [5] it was 50 µM and 66 µM; in assay [6] it was 29.7 µM and > 100 µM. Besides, the TGI in [7] is 7.8 µM and 5.58 µM; in [8], 50 µM and 52.6 µM; in assay [10], 3.44 µM and 3.71 µM.
Consider `CC(=O)OC1=NN=C2COC(c3ccccc3OC(C)=O)=NN2C1`, for which the TGI in assay [1], in assay [2], in [3], in assay [4], in assay [5] and in assay [6] was greater than 50 µM each time. In addition, the TGI in assay [7], in assay [8], in assay [9] and in [10] was greater than 50 µM each time.
For `N.N.N.N.N.O=C([O-])c1nn[n-]n1.[Cl-].[Co+3]`, the GI50 in assay [1], in [2], in [3], in assay [4], in [5] and in assay [6] was greater than 100 µM each time. For the same compound, the GI50 in assay [7], in assay [8], in assay [9] and in [10] was greater than 100 µM throughout. Further, the TGI in [1], in assay [2], in [3], in assay [4], in assay [5] and in assay [6] was greater than 100 µM each time. Further, the TGI in assay [7], in assay [8], in assay [9] and in [10] was greater than 100 µM in each case.
Take `NC1=NN(c2ccccc2)C(=O)C1C(=O)CCC(=O)Nc1cccc(C(F)(F)F)c1` (centres undefined): the TGI in assay [1], in assay [2], in assay [3], in assay [4], in assay [5] and in assay [6] was greater than 100 µM throughout. The TGI in assay [7], in [8], in assay [9] and in assay [10] was greater than 100 µM throughout.
On to `COc1cc(C2=NN(C(C)=O)C(c3ccc(OC(C)=O)cc3OC(C)=O)O2)c(OC(C)=O)c2ccccc12` (centres undefined), for which the GI50 in assay [1] is 0.447 µM; in assay [2], 0.346 µM; in assay [3] it was 0.565 µM; in assay [4], 0.82 µM; in [5], 0.872 µM; in [6] it was 1.02 µM. Further, the GI50 in assay [7] is 0.374 µM; in assay [8], 1.68 µM; in [9], 0.537 µM; in [10], 0.897 µM. The TGI was greater than 35.6 µM in assay [1]; 12.2 µM in [2]; 14.6 µM in assay [3]; 42.6 µM in assay [4]; greater than 91.2 µM in [5]; 27.3 µM in [6]. Further, the TGI in assay [7] is 11.7 µM; in assay [8], 23.8 µM; in assay [9], greater than 27.4 µM; in assay [10], 9.67 µM.
In the case of `CCN(CC)c1ccc(C(=N)c2ccc(N(CC)CC)cc2)cc1`, the GI50 in assay [1] was 0.784 µM; in [2], 0.323 µM; in assay [3], 0.831 µM; in [4] it was 0.565 µM; in assay [5], 0.255 µM; in assay [6], 0.366 µM. For the same compound, the GI50 in assay [7] is 0.598 µM; in assay [8], 0.438 µM; in [9], 0.28 µM; in assay [10], 0.621 µM. The TGI in assay [1] is 6.43 µM; in assay [2], 1.35 µM; in assay [3], 2.6 µM; in assay [4], 4.43 µM; in assay [5] it was 1.67 µM; in assay [6] it was 1.52 µM. For the same compound, the TGI is 2.02 µM in assay [7], 2.02 µM in assay [8], 1.2 µM in assay [9] and 2.24 µM in assay [10].
`CCCCN=C(N)c1ccc(OCCSCCOc2ccc(C(N)=NCCCC)cc2)cc1`: the GI50 in assay [1] is greater than 100 µM; in assay [2] it was 4.46 µM; in assay [3], 12.1 µM; in assay [4], 16.4 µM; in assay [5], 2.3 µM; in assay [6] it was 3.62 µM. The GI50 is 9.46 µM in assay [7], 2.73 µM in assay [8], 3.13 µM in [9] and 6.12 µM in assay [10]. Also, the TGI in assay [1] was greater than 100 µM; in assay [2] it was greater than 100 µM; in assay [3], greater than 100 µM; in [4], greater than 100 µM; in [5], greater than 100 µM; in assay [6], 19.9 µM. Moreover, the TGI in assay [7] is greater than 100 µM; in assay [8], 53.8 µM; in [9], 53.7 µM; in [10], greater than 100 µM.
As for `COc1ccc(-c2cn3ccsc3n2)cc1`, the TGI in assay [1], in [2], in [3], in assay [4], in [5] and in assay [6] was greater than 100 µM each time. Further, the TGI is greater than 100 µM in [7], greater than 100 µM in assay [8], 75.6 µM in assay [9] and greater than 100 µM in [10].
